# Literature values in US20200206183A1, “SYSTEMS, METHODS, AND FORMULATIONS FOR TREATING CANCER” (Research Cancer Institute of America, priority 2011, published 2020).
# Tests used:
# [1] = test system: patients who had cancer deemed no longer treatable by conventional methods
# tyrosine kinase = conditions: measured in 11 subjects
Dose concluded for further study ([1]; intravenous),Subjects with a decrease in tyrosine kinase levels (tyrosine kinase),Compound,"Suppression as defined by the radiological criteria of WHO ([1]; up to 1700 mg/m2 intravenous for about 3 weeks, 50 patients)","Patients with sustained decreases in unique cancer markers ([1]; up to 1700 mg/m2 intravenous, 50 patients)",Toxicity (patients; oral doses up to 36 grams per day),"Patients with stable disease (patients; stable disease for more than 6 months while on the drug, one study)"
≤ 1400 mg/m2,9 subjects,O=c1c(O)c(-c2ccc(O)c(O)c2)oc2cc(O)cc(O)c12 [quercetin],None of the patients achieved suppression,two showed sustained decreases,–,–
–,–,sodium phenylbutyrate [SPB],–,–,minimal toxicity,25%
